Reference: article PMC9222498 (Bioactive Materials, 2022)

Legend:
[1] = tested on: 4T1 spontaneous metastasis model; assay: In vivo antimetastatic activity, 4T1 spontaneous metastasis model; design: species or system mice; details: Day 24
Carboxylesterase = details: after intravenous administration; ref [51]; cited from earlier work
[2] = tested on: orthotopic 4T1 breast cancer model; assay: In vivo antitumor activity, orthotopic 4T1 breast cancer model; design: species or system BALB/c mice; details: 10 mg/kg SN38 equiv., i.v., days 0, 3, 6

CCc1c2c(nc3ccc(OC(=O)N4CCC(N5CCCCC5)CC4)cc13)-c1cc3c(c(=O)n1C2)COC(=O)[C@]3(O)CC [CPT-11, irinotecan]
metastasizing tumor cells in liver and lung (H&E) [1]: clearly detected metastasizing tumor cells in liver and lung | metastatic burden in lymph nodes (H&E) ([1]; ipsilateral inguinal lymph node): did not significantly reduce the metastatic burden | enzymatic conversion rate to SN38 (Carboxylesterase): < 8% | primary tumor growth [2]: similarly rapid tumor growth compared with the saline-treated group
